Laboratory results taken from the supplement of paper PMC10307832.

Key:
Experiment in all cases: relative viability (nuclei count vs DMSO), 5 days (fraction); higher = more cells survive
[1] = compound: CC1CC(=O)N(C2=CN=C(N=C2N1C3CCCC3)NC4=C(C=C(C=C4)C(=O)NC5CCN(CC5)C)OC)C [NPK76-II-72-1] + Cc1cc(Nc2cc(N3CCN(C)CC3)nc(Sc3ccc(NC(=O)C4CC4)cc3)n2)n[nH]1 [Tozasertib] (partner 0.1 µM)
Outline: (§1)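 Nuclei were stained with Hoechst during a one-step fixation (final 0.05% Triton X-100, 1% formaldehyde, 1 ug/ml Hoechst) carried out 5 days after dosing, then counted on 4× images. The cells, lung cancer lines in 1536-well plates, had been dosed by pin tool the day after seeding with one drug alone or a fixed anchor-drug dose plus five library-drug doses (not always all listed) in √10 steps. Relative viability is the nuclei count in treated wells divided by that in vehicle wells, and each value is the median of duplicate plates.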

NPK76-II-72-1 + Olaparib = compound: CC1CC(=O)N(C2=CN=C(N=C2N1C3CCCC3)NC4=C(C=C(C=C4)C(=O)NC5CCN(CC5)C)OC)C [NPK76-II-72-1] + O=C(c1cc(Cc2n[nH]c(=O)c3ccccc23)ccc1F)N1CCN(C(=O)C2CC2)CC1 [Olaparib] (partner 8 µM)
Outline: as §1

[2] = compound: CC1CC(=O)N(C2=CN=C(N=C2N1C3CCCC3)NC4=C(C=C(C=C4)C(=O)NC5CCN(CC5)C)OC)C [NPK76-II-72-1] + CS(=O)(=O)CCNCc1ccc(-c2ccc3ncnc(Nc4ccc(OCc5cccc(F)c5)c(Cl)c4)c3c2)o1 [Lapatinib] (partner 2 µM)
Outline: as §1

[3] = compound: CC1CC(=O)N(C2=CN=C(N=C2N1C3CCCC3)NC4=C(C=C(C=C4)C(=O)NC5CCN(CC5)C)OC)C [NPK76-II-72-1] + CC(C)C[C@H](NC(=O)[C@H](Cc1ccccc1)NC(=O)c1cnccn1)B(O)O [Bortezomib] (partner 0.002 µM)
Outline: as §1

Row | Cell Line | relative viability ([1]; first compound 0.01 µM) | relative viability ([1]; first compound 0.03162 µM) | relative viability ([1]; first compound 0.1 µM) | relative viability ([1]; first compound 0.3162 µM) | relative viability ([1]; first compound 1 µM) | relative viability (NPK76-II-72-1 + Olaparib; first compound 0.01 µM) | relative viability (NPK76-II-72-1 + Olaparib; first compound 0.03162 µM) | relative viability (NPK76-II-72-1 + Olaparib; first compound 0.1 µM) | relative viability (NPK76-II-72-1 + Olaparib; first compound 1 µM) | relative viability ([2]; first compound 0.01 µM) | relative viability ([2]; first compound 0.03162 µM) | relative viability ([2]; first compound 0.1 µM) | relative viability ([2]; first compound 0.3162 µM) | relative viability ([2]; first compound 1 µM) | relative viability (NPK76-II-72-1 + Olaparib; first compound 0.3162 µM) | relative viability ([3]; first compound 0.01 µM) | relative viability ([3]; first compound 0.03162 µM) | relative viability ([3]; first compound 0.1 µM) | relative viability ([3]; first compound 0.3162 µM) | relative viability ([3]; first compound 1 µM)
1 | NCI-H522 | 0.617 | 0.443 | 0.562 | 0.55 | 0.54 | 0.586 | 0.661 | 0.703 | 0.607 |  |  |  |  |  |  |  |  |  |  | 
2 | HCC-15 | 0.394 | 0.384 | 0.342 | 0.41 | 0.462 | 0.679 | 0.766 | 0.639 | 0.741 | 0.85 | 0.879 | 0.787 | 0.749 | 0.895 | 0.689 | 0.995 | 1.11 | 1.05 | 1.02 | 1.02
3 | A-427 | 0.222 | 0.23 | 0.207 | 0.192 | 0.252 | 0.644 | 0.772 | 0.74 | 0.869 | 1.07 | 1.04 | 1.02 | 1.03 | 0.953 | 0.653 | 0.935 | 0.977 | 1.06 | 0.932 | 1.02
4 | NCI-H2228 | 0.243 | 0.265 | 0.341 | 0.213 | 0.422 | 0.561 | 0.666 | 0.841 | 0.817 | 0.88 | 1.04 | 1.13 | 1.15 | 0.874 | 0.597 | 0.799 | 0.81 | 0.935 | 0.942 | 1.31
5 | NCI-H1734 | 0.29 | 0.271 | 0.28 | 0.261 | 0.287 | 0.582 | 0.72 | 0.745 | 0.667 | 1.02 | 1.11 | 1.16 | 1.03 | 1.17 | 0.542 | 0.879 | 0.96 | 0.969 | 0.779 | 1.13
6 | PC-14 | 0.577 | 0.609 | 0.594 | 0.564 | 0.699 | 0.295 | 0.377 | 0.384 | 0.32 | 0.321 | 0.269 | 0.28 | 0.301 | 0.338 | 0.267 | 0.809 | 0.849 | 0.892 | 0.839 | 1.08
7 | NCI-H1915 | 0.479 | 0.455 | 0.47 | 0.418 | 0.482 | 0.271 | 0.254 | 0.262 | 0.246 | 0.931 | 1.07 | 1.01 | 0.881 | 0.897 | 0.253 | 0.981 | 1.04 | 0.848 | 0.865 | 1.02
8 | NCI-H1666 | 0.668 | 0.674 | 0.525 | 0.546 | 0.666 | 0.74 | 0.754 | 0.735 | 0.758 | 0.515 | 0.653 | 0.789 | 0.58 | 0.788 | 0.84 | 0.9 | 0.801 | 0.73 | 0.647 | 1.03
9 | HCC-366 | 0.204 | 0.156 | 0.111 | 0.118 | 0.169 | 0.328 | 0.374 | 0.469 | 0.366 | 1.04 | 1.08 | 1.01 | 1.14 | 1.08 | 0.39 | 0.952 | 1.1 | 1.03 | 0.94 | 0.99
10 | SK-MES-1 | 0.938 | 0.999 | 0.876 | 0.937 | 0.922 | 0.646 | 0.787 | 0.794 | 0.728 | 0.447 | 0.449 | 0.426 | 0.419 | 0.465 | 0.746 |  |  |  |  | 
11 | SW 1573 | 0.168 | 0.208 | 0.238 | 0.265 | 0.21 | 0.437 | 0.625 | 0.495 | 0.473 | 1.03 | 1.09 | 1.04 | 1 | 1.16 | 0.488 | 1.13 | 1.04 | 0.822 | 1.04 | 1.27
12 | NCI-H661 | 0.351 | 0.351 | 0.35 | 0.386 | 0.36 | 0.697 | 0.705 | 0.778 | 0.83 | 0.398 | 0.532 | 0.562 | 0.473 | 0.513 | 0.666 | 0.912 | 0.793 | 0.688 | 0.647 | 0.854
13 | PC-3 [JPC-3] | 0.882 | 0.861 | 0.81 | 0.904 | 0.93 | 1.12 |  | 1.09 | 1.2 | 0.479 | 0.453 | 0.448 | 0.463 | 0.439 | 1.09 | 0.83 | 0.897 | 0.581 | 0.778 | 0.81
14 | NCI-H1623 | 0.467 | 0.434 | 0.353 | 0.341 | 0.467 |  |  |  |  |  |  |  |  |  |  |  |  |  |  | 
15 | Calu-6 |  |  |  |  |  | 0.561 | 0.625 | 0.65 | 0.559 | 1.01 | 1.12 | 1.08 | 1.03 | 1.17 | 0.62 | 0.992 | 1.03 | 1.16 | 0.894 | 1.06
16 | LC-2-ad | 0.469 | 0.491 | 0.436 | 0.404 | 0.493 | 0.673 | 0.72 | 0.702 | 0.683 | 0.916 | 1.02 | 0.976 | 1.04 | 1.06 | 0.704 | 0.981 | 1.04 | 0.926 | 1.01 | 1.07
17 | CAL-12T | 0.33 | 0.324 | 0.314 | 0.25 | 0.363 | 0.724 | 0.829 | 0.726 | 0.825 | 0.571 | 0.749 | 0.632 |  | 0.777 | 0.741 | 0.874 | 0.832 | 0.872 |  | 1.01
